Source: patent US8765720B2, “Combination therapy for the treatment of multiple myeloma” (Cephalon, Inc., priority 2009, dated 2014)

Experiments:
RPMI8226 cells [1] = test: Cell viability assay (MTS assay), RPMI8226 cells; type: cell-based, human; details: RPMI8226, 48 hours
Method: Combination indices (CIs) were calculated separately for each combination. […] CIs between 0.9 and 1.1 were considered to indicate additive drug effects (31).

RPMI8226 cells [2] = test: Apoptotic assay by annexin V and propidium iodide staining; type: cell-based, human; details: 2.5 nM for each drug, 30 hours
Method: To quantify apoptosis in response to drug treatment, RPMI8226 cells (5×10^5 cells per well) were incubated with vehicle or PIs at 37° C. and 5% CO2 for 30 hours. As a positive control, cells were incubated with 250 ng/mL of actinomycin D for 24 or 48 hours. Cells were then washed twice with phosphate-buffered saline, resuspended in binding buffer (100 mM HEPES/NaOH, pH 7.5 containing 1.4 M NaCl and 25 mM CaCl2), and stained with fluorescein isothiocyanate (FITC)-conjugated annexin V and with the fluorescent dye propidium iodide (PrI), according to the manufacturer's protocol (BioVision, Mountain View, Calif.). For each drug treatment, 1×10^5 gated events were recorded. Cells negative for both PI and annexin V staining were considered live; annexin V-positive, PrI-negative cells were considered early apoptotic; annexin V-positive, PrI-positive cells were considered late apoptotic. Flow cytometric analyses were performed using a Beckman Coulter FC500 cytometer with Cytomics CXP software (Beckman Coulter, Fullerton, Calif.).

LAGκ-1A tumor = test: Intramuscular LAGκ-1A tumor xenograft model (serum hIgG, tumor volume); details: for serum hIgG levels: 28 days of treatment; for serum hIgG levels and tumor volume vs vehicle: alone or together
Method: (§1) Six- to 8-week-old male severe combined immunodeficient (SCID) mice were obtained from the Jackson Laboratory (Bar Harbor, Me.) and maintained in a specific pathogen-free area in our animal resources facility. All animal studies were conducted according to protocols approved by the Institutional Animal Care and Use Committee. Animals were anesthetized with ketamine, xylazine, and isoflurane prior to surgery and were euthanized when tumors reached 2 cm in diameter.
(§2) Biopsy tissue was surgically implanted in the hind limbs of anesthetized SCID mice and passaged through succeeding generations (32).
(§3) Myeloma tumors (LAGκ-1A or LAGκ-1B) were excised from an anesthetized donor mouse, sectioned into 20 to 40 mm^3 pieces, and surgically implanted into the left superficial gluteal muscle of anesthetized naive SCID mice. Recipient mice received weekly injections of anti-asialo GM1 rabbit serum (Wako Bioproducts, Richmond, Va.) to further suppress immune activity. Mice were blindly assigned to one of the experimental groups, and treatment was initiated 7 to 21 days after tumor implantation. COMPOUND 1 was administered via oral gavage daily (0.5-5.0 mg/kg) or twice weekly (5-10 mg/kg). COMPOUND 1 was also administered twice weekly (W, F) via either IV injection (0.5-3.0 mg/kg) or oral gavage (10 mg/kg), as specified. Melphalan (1 mg/kg) was provided via weekly intraperitoneal (IP) injections (W). Bortezomib (0.5 mg/kg) was dispensed twice weekly (T, Th) via IV injection. Control treatment consisted of COMPOUND 1 diluent (3.2 mL 5% mannitol and 800 μL propylene glycol) alone.
Mice bearing MM tumors underwent weekly retro-orbital bleeds. Resulting samples were spun at 13,000 rpm for 30 minutes to isolate serum. The hIgG ELISA kit (Bethyl Laboratories, Montgomery, Tex.) was used according to the manufacturer's specifications. Absorbance at 450 nm with a reference wavelength of 550 nm was determined on a μQuant microplate spectrophotometer with KC Junior software (Bio-Tek Instruments, Winooski, Vt.). Data graphed are the mean±SEM with n=7-8 mice/group.
(§4) As a direct measurement of tumor growth, calipers were used to assess tumor volume weekly, and the formula for an ellipsoid volume was applied ( 4/3π×[width/2]^2×[length/2]).
(§5) Percent inhibition of tumor growth is represented as the tumor volume of the test drug group over the tumor volume of the untreated group (T/C). The optimal value is the minimal T/C ratio that reflects the maximal tumor growth inhibition achieved. The criterion for efficacy for the T/C ratio is ≦42%, according to National Cancer Institute (NCI) standard criteria (44).
(§6) Efficacy of drug therapy against tumors was standardized to the time (t) required for the untreated tumor to grow to a determined size based on the greatest difference in time to reach a tumor volume between the control and treatment group. This value can be represented as the growth delay (in days) between treated and control (tt−tc) (44).
(§7) Tumor growth and hIgG levels were analyzed in terms of treatment group means and standard error. Student's t-test was applied to determine the statistical significance of differences between treatment groups. Minimal significance level was P<0.05.

LAGκ-1B tumor = test: Intramuscular LAGκ-1B tumor xenograft model (tumor volume); details: for delay of tumor volume growth to 300 mm^3: oral 5 mg/kg daily; for delay of tumor volume at 220 mm^3 / Percentage T/C: oral 10 mg/kg twice weekly
Method: as §1, §2
as §3, with “Melphalan (1 mg/kg) was provided via weekly intraperitoneal (IP) injections (W).” left out
as §4, §5, §6, §7

[3] = bortezomib 0.5 mg/kg IV, COMPOUND 1 1 mg/kg IV, alone or together

With `CC(C)C[C@H](NC(=O)[C@@H](NC(=O)c1cccc(-c2ccccc2)n1)[C@@H](C)O)B(O)O` [COMPOUND 1, [(1R)-1-[[(2S,3R)-3-hydroxy-2-[6-phenyl-pyridine-2-carbonyl)amino]-1-oxobutyl]amino]-3-methylbutylboronic acid] the IC50 (RPMI8226 cells [1]; Homo sapiens, RPMI-8226) was 8.5 nM, the cytotoxicity at 0.009 µM (RPMI8226 cells [1]; Homo sapiens, RPMI-8226, single-agent COMPOUND 1 9.0 nM, read-out: decrease in cell viability) was 64% and the inhibition of viability (RPMI8226 cells [1]; COMPOUND 1 0.1-10 nM) was “concentration-dependent inhibition of viability”. The “proportion of cells in early apoptosis (PrI−/Annexin V+)” value (RPMI8226 cells [2]) was 10.4 % of cells, the “serum hIgG levels” value (LAGκ-1A tumor; 1 mg/kg and 3 mg/kg IV twice weekly, P=0.0001 / P=0.0002 vs control) was “essentially undetectable” and the “serum hIgG levels and tumor volume vs vehicle” value (LAGκ-1A tumor; COMPOUND 1 1 mg/kg IV, bortezomib 0.5 mg/kg IV, twice weekly) was “only partially inhibited”. The “reduction in the volume of tumors vs control” value (LAGκ-1A tumor; IV 1 or 3 mg/kg twice weekly, after 4 weeks, P=0.0001) was “approximately 15 fold”, the “serum hIgG levels and tumor volume vs vehicle” value (LAGκ-1A tumor; melphalan 1 mg/kg IP weekly, COMPOUND 1 1 mg/kg IV twice weekly, 3 weeks) was “nonsignificant decrease” and the “delay of tumor volume growth to 87.5 mm^3” value (LAGκ-1A tumor; mouse, in vivo, po, 5 mg/kg) was 53 days. For the same compound, the “tumor inhibition (hIgG, tumor volume)” value (LAGκ-1A tumor; mouse, in vivo, po, 5 mg/kg) was “significant tumor inhibition”, the “mice died of drug-related toxicity” value (LAGκ-1A tumor; oral 5 mg/kg daily) was “Two of fifteen” and the “delay of tumor volume growth to 87.5 mm^3” value (LAGκ-1A tumor; oral 5 mg/kg daily, vs untreated control) was 530%. The “mice surviving five weeks of dosing and three week follow-up” value (LAGκ-1A tumor; oral 10 mg/kg twice weekly) was 15/15, the “Percentage T/C” value (LAGκ-1A tumor; oral 10 mg/kg twice weekly, day 21) was 29.3% and the “Percentage T/C” value (LAGκ-1A tumor; oral 10 mg/kg twice weekly, day 28) was 17.3%. The “delay of tumor volume growth to 700 mm^3” value (LAGκ-1A tumor; oral 10 mg/kg twice weekly, day 32.5 control vs day 63) was 30.5 days, the “Percentage T/C” value (LAGκ-1A tumor; oral 10 mg/kg twice weekly, day 35) was 6.1% and the “Percentage T/C” value (LAGκ-1A tumor; oral 10 mg/kg twice weekly, day 42) was 6.1%. For the same compound, the “Percentage T/C” value (LAGκ-1A tumor; oral 10 mg/kg twice weekly, day 49) was 10.6%, the “human paraprotein secretion and tumor volume” value (LAGκ-1A tumor; oral 10 mg/kg twice weekly, three weeks (day 28), hIgG P=0.0011, tumor volume P=0.001) was “significant inhibition of both human paraprotein secretion and reduction of tumor volume” and the “delay of tumor volume growth to 700 mm^3” value (LAGκ-1A tumor; oral 10 mg/kg twice weekly, vs no treatment) was 93.8%. For the same compound, the “tumor volume vs control-treated tumors” value (LAGκ-1A tumor; oral (10 mg/kg twice weekly), 14 days of treatment, P=0.0002) was “marked reduction in tumor volume”, the “serum hIgG levels” value (LAGκ-1A tumor; oral (10 mg/kg twice weekly), P=0.0001) was “negligible” and the “serum hIgG levels vs control-treated animals” value (LAGκ-1A tumor; oral (10 mg/kg twice weekly), within 2 weeks of treatment, P=0.0007) was “significantly lower”. For the same compound, the “anti-myeloma activity (human IgG levels and tumor volumes)” value (LAGκ-1A tumor; oral, daily, 3 mg/kg) was “moderate anti-myeloma activity”, the “paraprotein secretion from tumors” value (LAGκ-1A tumor; single-agent IV twice weekly, escalating doses) was “dose-dependent decrease in paraprotein secretion” and the “tumors, times smaller than control-treated mice” value (LAGκ-1B tumor; 3 mg/kg IV or 10 mg/kg oral twice weekly, after 14 days, P=0.0008 / P=0.0028) was 8 to 12 times. For the same compound, the “days to tumor progression” value (LAGκ-1B tumor; [3]) was 35 days, the “survival longer than vehicle-treated mice” value (LAGκ-1B tumor; [3]) was 20% and the “tumor growth vs vehicle” value (LAGκ-1B tumor; bortezomib 0.5 mg/kg IV, COMPOUND 1 1 mg/kg IV, alone or together, combination after 21 days P=0.0014) was “only modestly suppresses”. For the same compound, the “drug-related / toxicity-related deaths” value (LAGκ-1B tumor; by day 70, bortezomib 0.5 mg/kg IV, COMPOUND 1 1 mg/kg IV, alone or together) was “one death each”, the tumor volume (LAGκ-1B tumor; mouse, in vivo) was “partially inhibited” and the body weight (LAGκ-1B tumor; mouse, in vivo, po) was “without significant loss of body weight”. The tumor volume inhibition (LAGκ-1B tumor; oral 5 mg/kg daily or 10 mg/kg twice weekly, day 35, P=0.0327 / P=0.0018) was “significant tumor volume inhibition”, the “delay of tumor volume growth to 300 mm^3” value (LAGκ-1B tumor; day 31 control vs day 42) was 11 days and the “delay of tumor volume growth to 300 mm^3” value (LAGκ-1B tumor; vs no treatment) was 35.5%. For the same compound, the “delay of tumor volume at 220 mm^3” value (LAGκ-1B tumor; day 28 control vs day 42) was 14 days, the “Percentage T/C” value (LAGκ-1B tumor; day 35) was 21.6% and the “Percentage T/C” value (LAGκ-1B tumor; day 42) was 27.5%. For the same compound, the “Percentage T/C” value (LAGκ-1B tumor; day 49) was 26.1%, the “Percentage T/C” value (LAGκ-1B tumor; day 56) was 30.5% and the “delay of tumor volume at 220 mm^3” value (LAGκ-1B tumor; vs untreated control) was 50%.
